Assay results as given in ChEMBL document CHEMBL1133928, “Design and synthesis of glycolic and mandelic acid derivatives as factor Xa inhibitors” (Bioorg Med Chem Lett, 2001).
Values belong to the compound of their own block, whether it stands above or below them.

Legend:
Serine protease 1 = Serine protease 1 (Homo sapiens, UniProt P07477); experiment: In vitro inhibitory activity against trypsin
Coagulation factor X = Coagulation factor X (Homo sapiens, UniProt P00742); experiment: In vitro inhibitory activity against coagulation factor X
Prothrombin = Prothrombin (Homo sapiens, UniProt P00734); experiment: In vitro inhibitory activity against thrombin
Oryctolagus cuniculus [1] = experiment: Antithrombotic effect (Inhibition of thrombus formation) in a rabbit deep vein thrombosis model at 0.132 uM plasma concentration following iv administration; format: functional
[2] = Oral bioavailability in rat; format: ADME, organism-based; conditions: in vivo
Oryctolagus cuniculus [3] = experiment: Antithrombotic effect (Inhibition of thrombus formation) in a rabbit deep vein thrombosis model at 1.1 uM plasma concentration following iv administration; format: functional

Sequence of Serine protease 1 (P07477 whole entry): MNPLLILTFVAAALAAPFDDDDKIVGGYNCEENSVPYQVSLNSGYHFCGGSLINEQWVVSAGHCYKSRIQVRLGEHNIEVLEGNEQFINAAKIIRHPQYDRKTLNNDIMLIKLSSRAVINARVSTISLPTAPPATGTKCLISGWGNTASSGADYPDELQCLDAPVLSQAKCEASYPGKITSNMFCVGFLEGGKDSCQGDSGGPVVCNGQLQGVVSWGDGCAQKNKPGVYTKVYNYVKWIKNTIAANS
Sequence of Coagulation factor X (P00742 41-179 limits assumed): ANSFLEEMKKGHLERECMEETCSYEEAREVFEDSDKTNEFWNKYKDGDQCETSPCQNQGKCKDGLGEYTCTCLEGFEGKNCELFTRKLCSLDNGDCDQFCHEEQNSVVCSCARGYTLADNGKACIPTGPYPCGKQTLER
Sequence of Coagulation factor X (P00742 235-488 limits assumed): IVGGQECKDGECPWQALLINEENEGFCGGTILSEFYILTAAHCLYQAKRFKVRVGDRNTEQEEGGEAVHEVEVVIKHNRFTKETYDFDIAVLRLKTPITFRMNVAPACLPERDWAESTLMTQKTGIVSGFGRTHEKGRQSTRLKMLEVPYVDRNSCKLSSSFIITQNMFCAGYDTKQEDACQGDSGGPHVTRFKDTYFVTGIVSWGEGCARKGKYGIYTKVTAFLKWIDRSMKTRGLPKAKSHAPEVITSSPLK

Compound: N=C(N)c1cccc(OCCC(=O)Nc2ccc(-c3ccccc3S(N)(=O)=O)cc2)c1
- IC50 (Serine protease 1): 2.57 µM
- IC50 (Coagulation factor X): 0.0064 µM
- IC50 (Prothrombin): > 10 µM

Compound: N=C(N)c1cccc(OCC(=O)Nc2ccc(C(=O)N3CCOCC3)cc2)c1
- IC50 (Serine protease 1): > 10 µM
- IC50 (Coagulation factor X): 1.12 µM
- IC50 (Prothrombin): > 10 µM

Compound: N=C(N)c1cccc(OCC(=O)Nc2ccc(C(=O)N3CC=CC3)cc2)c1
- IC50 (Serine protease 1): 0.875 µM
- IC50 (Coagulation factor X): 0.0063 µM
- IC50 (Prothrombin): > 10 µM

Compound: N=C(N)c1cccc(OC(C(=O)Nc2ccc(-c3ccccc3S(N)(=O)=O)cc2Br)c2ccccc2)c1 (centres undefined)
- IC50 (Serine protease 1): 4 µM
- IC50 (Coagulation factor X): 0.0032 µM
- IC50 (Prothrombin): 8.64 µM

Compound: N=C(N)c1cccc(OC(C(=O)Nc2ccc(C(=O)N3CCCC3)cc2Br)c2ccccc2)c1 (centres undefined)
- IC50 (Serine protease 1): 0.521 µM
- IC50 (Coagulation factor X): 0.00099 µM
- IC50 (Prothrombin): > 10 µM

Compound: N=C(N)c1ccc(O)c(OCC(=O)Nc2ccc(C(=O)N3CCCC3)cc2)c1
- IC50 (Serine protease 1): 0.283 µM
- IC50 (Coagulation factor X): 0.0007 µM
- IC50 (Prothrombin): > 10 µM

Compound: N=C(N)c1cccc(OCC(=O)Nc2ccc(C(=O)N3CCC3)cc2)c1
- IC50 (Serine protease 1): 2.05 µM
- IC50 (Coagulation factor X): 0.227 µM
- IC50 (Prothrombin): > 10 µM

Compound: N=C(N)c1cccc(OCC(=O)Nc2ccc(C(=O)N3CCCC3)cc2)c1
- IC50 (Serine protease 1): 2.7 µM
- IC50 (Coagulation factor X): 0.066 µM
- IC50 (Prothrombin): > 10 µM

Compound: N=C(N)c1ccc(O)c(OCC(=O)Nc2ccc(-c3ccccc3S(N)(=O)=O)cc2)c1
- IC50 (Serine protease 1): 2.29 µM
- IC50 (Coagulation factor X): 0.0022 µM
- IC50 (Prothrombin): > 10 µM

Compound: N=C(N)c1cccc(OCC(=O)Nc2ccc(C(=O)N3CCCCCC3)cc2)c1
- IC50 (Serine protease 1): > 10 µM
- IC50 (Coagulation factor X): 1.19 µM
- IC50 (Prothrombin): > 10 µM

Compound: N=C(N)c1cccc(OCC(=O)Nc2ccc(C(=O)N3CCCCC3)cc2)c1
- IC50 (Serine protease 1): > 10 µM
- IC50 (Prothrombin): > 10 µM

Compound: CN1CCN(C(=O)c2ccc(NC(=O)COc3cccc(C(=N)N)c3)cc2)CC1
- IC50 (Serine protease 1): > 10 µM
- IC50 (Coagulation factor X): > 10 µM
- IC50 (Prothrombin): > 10 µM

Compound: CC(C)(C)OC(=O)C1CCCN1C(=O)c1ccc(NC(=O)COc2cccc(C(=N)N)c2)cc1 (centres undefined)
- IC50 (Serine protease 1): 6.64 µM
- IC50 (Coagulation factor X): 2.93 µM
- IC50 (Prothrombin): > 10 µM

Compound: N=C(N)c1cccc(OCC(=O)Nc2ccc(C(=O)N3CCCC3C(=O)O)cc2)c1 (centres undefined)
- IC50 (Serine protease 1): > 10 µM
- IC50 (Coagulation factor X): > 10 µM
- IC50 (Prothrombin): > 10 µM

Compound: N=C(N)c1cccc(OCC(=O)Nc2ccc(-c3ccccc3S(N)(=O)=O)cc2)c1
- IC50 (Serine protease 1): 3.37 µM
- IC50 (Coagulation factor X): 0.021 µM
- IC50 (Prothrombin): > 10 µM

More lines, main results first:

- IC50 (Serine protease 1): 1.25 µM
- IC50 (Coagulation factor X): 0.00055 µM
- bioavailability [2]: 5%
- IC50 (Prothrombin): > 10 µM
Compound: N=C(N)c1cccc(OC(C(=O)Nc2ccc(-c3ccccc3S(N)(=O)=O)cc2)c2ccccc2)c1 (centres undefined)
- Inhibition (Oryctolagus cuniculus [1]): 56%

- IC50 (Coagulation factor X): 0.0044 µM
Compound: N=C(N)c1cccc(OC(C(=O)Nc2ccc(N3CCOCC3)c(F)c2)c2ccccc2)c1 (centres undefined)

- IC50 (Serine protease 1): 0.174 µM
- IC50 (Coagulation factor X): 0.00018 µM
- bioavailability [2]: 5%
Compound: N=C(N)c1cccc(OC(C(=O)Nc2ccc(C(=O)N3CCCC3)cc2)c2ccccc2)c1 (centres undefined)
- Inhibition (Oryctolagus cuniculus [3]): 81%

- IC50 (Serine protease 1): 5.33 µM
- IC50 (Coagulation factor X): 0.014 µM
Compound: N=C(N)c1cccc(OC(C(=O)Nc2ccc(-n3cnc(Cl)c3Cl)cc2)c2ccccc2)c1 (centres undefined)

- IC50 (Serine protease 1): > 10 µM
- IC50 (Coagulation factor X): 0.17 µM
- IC50 (Prothrombin): > 10 µM
Compound: N=C(N)c1cccc(OC(C(=O)Nc2ccc(-n3ccc(C(F)(F)F)n3)cc2)c2ccccc2)c1 (centres undefined)

- IC50 (Serine protease 1): 8.78 µM
- IC50 (Coagulation factor X): 0.093 µM
- IC50 (Prothrombin): 4.09 µM
Compound: N=C(N)c1cccc(OC(C(=O)Nc2cc(Cl)c(-n3cccc3)cc2Cl)c2ccccc2)c1 (centres undefined)

- IC50 (Serine protease 1): 9.82 µM
- IC50 (Prothrombin): > 10 µM
Compound: N=C(N)c1cccc(OC(C(=O)Nc2ccc(-c3ccccc3S(N)(=O)=O)cc2F)c2ccccc2)c1 (centres undefined)
